From US11370798B2 (Vertex Pharmaceuticals Incorporated, priority 2012, dated 2022)

System: HCT116 colorectal cancer cells
Assay: Cisplatin sensitization assay (96 h cell viability MTS);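 note: Test-compound concentration that lowers the Cisplatin IC50 by a set fold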
Type: cell-based
Conditions: compound and Cisplatin added simultaneously, Cisplatin sensitization value
In short: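 Compound and cisplatin added together as a full matrix of 2-fold serial dilutions from a top final concentration of 10 μM; cells incubated 96 h at 37° C, 5% CO2. Viability then read by MTS after 1 h further incubation; sensitization value reported in μM bins.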

| Compound | Cisplatin Sensitization Assay |
| --- | --- |
| Nc1nn2cc(F)cnc2c1C(=O)Nc1cncc(F)c1N1CCC(C(=O)N2CCN(C3COC3)CC2)CC1 [I-G-32, 2-amino-6-fluoro-N-[5-fluoro-4-[4-[4-(oxetan-3-yl)piperazine-1-carbonyl]-1-piperidyl]-3-pyridyl]pyrazolo[1,5-a]pyrimidine-3-carboxamide] | +++ (Cisplatin sensitization value of <0.02 μM) |
| CNC(=O)C1CCN(c2c(F)cncc2NC(=O)c2c(N)nn3cc(F)cnc23)CC1 [I-G-33, 2-amino-6-fluoro-N-(5-fluoro-4-(4-(methylcarbamoyl)piperidin-1-yl)pyridin-3-yl)pyrazolo[1,5-a]pyrimidine-3-carboxamide] | +++ (Cisplatin sensitization value of <0.02 μM) |
| CNC1CN(C(=O)C2CCN(c3c(F)cncc3NC(=O)c3c(N)nn4cc(F)cnc34)CC2)C1 [I-G-34, 2-amino-6-fluoro-N-(5-fluoro-4-(4-(3-(methylamino)azetidine-1-carbonyl)piperidin-1-yl)pyridin-3-yl)pyrazolo[1,5-a]pyrimidine-3-carboxamide] | +++ (Cisplatin sensitization value of <0.02 μM) |
| Nc1nn2cc(F)cnc2c1C(=O)Nc1cncc(F)c1N1CCC(C(=O)N2CCN(C3CCC3)CC2)CC1 [I-G-35, 2-amino-N-(4-(4-(4-cyclobutylpiperazine-1-carbonyl)piperidin-1-yl)-5-fluoropyridin-3-yl)-6-fluoropyrazolo[1,5-a]pyrimidine-3-carboxamide] | +++ (Cisplatin sensitization value of <0.02 μM) |
| Nc1nn2cc(F)cnc2c1C(=O)Nc1cncc(F)c1N1CCC(C(=O)N2CCOCC2)CC1 [I-G-36, 2-amino-6-fluoro-N-(5-fluoro-4-(4-(morpholine-4-carbonyl)piperidin-1-yl)pyridin-3-yl)pyrazolo[1,5-a]pyrimidine-3-carboxamide] | +++ (Cisplatin sensitization value of <0.02 μM) |
| Nc1nn2cc(F)cnc2c1C(=O)Nc1cncc(F)c1N1CCC(C(=O)NC2COC2)CC1 [I-G-37, 2-amino-6-fluoro-N-(5-fluoro-4-(4-(oxetan-3-ylcarbamoyl)piperidin-1-yl)pyridin-3-yl)pyrazolo[1,5-a]pyrimidine-3-carboxamide] | ++ (Cisplatin sensitization value>0.02 μM but <0.2 μM) |
| CN1CCN(C(=O)C2CCN(c3c(F)cncc3NC(=O)c3c(N)nn4cc(F)cnc34)CC2)CC12CC2 [I-G-38, 2-amino-6-fluoro-N-(5-fluoro-4-(4-(4-methyl-4,7-diazaspiro[2.5]octane-7-carbonyl)piperidin-1-yl)pyridin-3-yl)pyrazolo[1,5-a]pyrimidine-3-carboxamide] | +++ (Cisplatin sensitization value of <0.02 μM) |
| COCCN(C)C(=O)C1CCN(c2c(F)cncc2NC(=O)c2c(N)nn3cc(F)cnc23)CC1 [I-G-40, 2-amino-6-fluoro-N-(5-fluoro-4-(4-((2-methoxyethyl)(methyl)carbamoyl)piperidin-1-yl)pyridin-3-yl)pyrazolo[1,5-a]pyrimidine-3-carboxamide] | +++ (Cisplatin sensitization value of <0.02 μM) |
| Nc1nn2cc(F)cnc2c1C(=O)Nc1cncc(F)c1N1CCC(C(=O)N2CC(O)C2)CC1 [I-G-41, 2-amino-6-fluoro-N-(5-fluoro-4-(4-(3-hydroxyazetidine-1-carbonyl)piperidin-1-yl)pyridin-3-yl)pyrazolo[1,5-a]pyrimidine-3-carboxamide] | +++ (Cisplatin sensitization value of <0.02 μM) |
| Nc1nn2cc(F)cnc2c1C(=O)Nc1cncc(F)c1N1CCC(C(=O)NCCN2CCC2)CC1 [I-G-42, 2-amino-N-(4-(4-((2-(azetidin-1-yl)ethyl)carbamoyl)piperidin-1-yl)-5-fluoropyridin-3-yl)-6-fluoropyrazolo[1,5-a]pyrimidine-3-carboxamide] | +++ (Cisplatin sensitization value of <0.02 μM) |
| Nc1nn2cc(F)cnc2c1C(=O)Nc1cncc(F)c1N1CCC(C(=O)N2CC(N3CCCC3)C2)CC1 [I-G-43, 2-amino-6-fluoro-N-(5-fluoro-4-(4-(3-(pyrrolidin-1-yl)azetidine-1-carbonyl)piperidin-1-yl)pyridin-3-yl)pyrazolo[1,5-a]pyrimidine-3-carboxamide] | +++ (Cisplatin sensitization value of <0.02 μM) |
| Nc1nn2cc(F)cnc2c1C(=O)Nc1cncc(F)c1N1CCC(C(=O)N2CC3CCC(C2)N3)CC1 [I-G-44, N-(4-(4-(3,8-diazabicyclo[3.2.1]octane-3-carbonyl)piperidin-1-yl)-5-fluoropyridin-3-yl)-2-amino-6-fluoropyrazolo[1,5-a]pyrimidine-3-carboxamide] | +++ (Cisplatin sensitization value of <0.02 μM) |
| C[C@@H]1CN(C(=O)C2CCN(c3c(F)cncc3NC(=O)c3c(N)nn4cc(F)cnc34)CC2)CCN1 [I-G-45, (R)-2-amino-6-fluoro-N-(5-fluoro-4-(4-(3-methylpiperazine-1-carbonyl)piperidin-1-yl)pyridin-3-yl)pyrazolo[1,5-a]pyrimidine-3-carboxamide] | +++ (Cisplatin sensitization value of <0.02 μM) |
| Nc1nn2cc(F)cnc2c1C(=O)Nc1cncc(F)c1N1CCC(C(=O)N2CCN3CCC2C3)CC1 (centres unmarked) [I-G-46, N-(4-(4-(1,4-diazabicyclo[3.2.1]octane-4-carbonyl)piperidin-1-yl)-5-fluoropyridin-3-yl)-2-amino-6-fluoropyrazolo[1,5-a]pyrimidine-3-carboxamide] | +++ (Cisplatin sensitization value of <0.02 μM) |
| C[C@H]1CN(C(=O)C2CCN(c3c(F)cncc3NC(=O)c3c(N)nn4cc(F)cnc34)CC2)CCN1C [I-G-47, (S)-2-amino-N-(4-(4-(3,4-dimethylpiperazine-1-carbonyl)piperidin-1-yl)-5-fluoropyridin-3-yl)-6-fluoropyrazolo[1,5-a]pyrimidine-3-carboxamide] | +++ (Cisplatin sensitization value of <0.02 μM) |
| Nc1nn2cc(F)cnc2c1C(=O)Nc1cncc(Cl)c1N1CCC(C(=O)N2CCNCC2)CC1 [I-G-48, 2-amino-N-(5-chloro-4-(4-(piperazine-1-carbonyl)piperidin-1-yl)pyridin-3-yl)-6-fluoropyrazolo[1,5-a]pyrimidine-3-carboxamide] | +++ (Cisplatin sensitization value of <0.02 μM) |
| Nc1nn2cc(F)cnc2c1C(=O)Nc1cncc(F)c1N1CCC(C(=O)N2CC(N3CCC3)C2)CC1 [I-G-49, N-(4-(4-([1,3′-biazetidine]-1′-carbonyl)piperidin-1-yl)-5-fluoropyridin-3-yl)-2-amino-6-fluoropyrazolo[1,5-a]pyrimidine-3-carboxamide] | +++ (Cisplatin sensitization value of <0.02 μM) |
| C[C@@H]1CN(C(=O)C2CCN(c3c(F)cncc3NC(=O)c3c(N)nn4cc(F)cnc34)CC2)CCN1C [I-G-50, (R)-2-amino-N-(4-(4-(3,4-dimethylpiperazine-1-carbonyl)piperidin-1-yl)-5-fluoropyridin-3-yl)-6-fluoropyrazolo[1,5-a]pyrimidine-3-carboxamide] | +++ (Cisplatin sensitization value of <0.02 μM) |
| Nc1nn2cc(F)cnc2c1C(=O)Nc1cncc(F)c1N1CCC(C(=O)N2CC3CNCC3C2)CC1 (centres unmarked) [I-G-51, 2-amino-6-fluoro-N-(5-fluoro-4-(4-(octahydropyrrolo[3,4-c]pyrrole-2-carbonyl)piperidin-1-yl)pyridin-3-yl)pyrazolo[1,5-a]pyrimidine-3-carboxamide] | +++ (Cisplatin sensitization value of <0.02 μM) |
| CN1C2CCC1CN(C(=O)C1CCN(c3c(F)cncc3NC(=O)c3c(N)nn4cc(F)cnc34)CC1)C2 [I-G-52, 2-amino-6-fluoro-N-(5-fluoro-4-(4-(8-methyl-3,8-diazabicyclo[3.2.1]octane-3-carbonyl)piperidin-1-yl)pyridin-3-yl)pyrazolo[1,5-a]pyrimidine-3-carboxamide] | +++ (Cisplatin sensitization value of <0.02 μM) |
| CN1CC2CC1CN2C(=O)C1CCN(c2c(F)cncc2NC(=O)c2c(N)nn3cc(F)cnc23)CC1 (centres unmarked) [I-G-53, 2-amino-6-fluoro-N-(5-fluoro-4-(4-(5-methyl-2,5-diazabicyclo[2.2.1]heptane-2-carbonyl)piperidin-1-yl)pyridin-3-yl)pyrazolo[1,5-a]pyrimidine-3-carboxamide] | +++ (Cisplatin sensitization value of <0.02 μM) |
| CN1CCN(C(=O)C2(C)CCN(c3c(F)cncc3NC(=O)c3c(N)nn4cc(F)cnc34)CC2)CC1 [I-G-54, 2-amino-6-fluoro-N-(5-fluoro-4-(4-methyl-4-(4-methylpiperazine-1-carbonyl)piperidin-1-yl)pyridin-3-yl)pyrazolo[1,5-a]pyrimidine-3-carboxamide] | +++ (Cisplatin sensitization value of <0.02 μM) |
| Cc1cncc(NC(=O)c2c(N)nn3cc(F)cnc23)c1N1CCC(C(=O)N2CCN(C)CC2)CC1 [I-G-55, 2-amino-6-fluoro-N-(5-methyl-4-(4-(4-methylpiperazine-1-carbonyl)piperidin-1-yl)pyridin-3-yl)pyrazolo[1,5-a]pyrimidine-3-carboxamide] | +++ (Cisplatin sensitization value of <0.02 μM) |
| Cc1cncc(NC(=O)c2c(N)nn3cc(F)cnc23)c1N1CCC(C(=O)N2CCNCC2)CC1 [I-G-56, 2-amino-6-fluoro-N-(5-methyl-4-(4-(piperazine-1-carbonyl)piperidin-1-yl)pyridin-3-yl)pyrazolo[1,5-a]pyrimidine-3-carboxamide] | +++ (Cisplatin sensitization value of <0.02 μM) |
| Nc1nn2cc(F)cnc2c1C(=O)Nc1cncc(F)c1N1CCC(C(=O)N2CC(N3CCCCC3)C2)CC1 [I-G-57, 2-amino-6-fluoro-N-(5-fluoro-4-(4-(3-(piperidin-1-yl)azetidine-1-carbonyl)piperidin-1-yl)pyridin-3-yl)pyrazolo[1,5-a]pyrimidine-3-carboxamide] | +++ (Cisplatin sensitization value of <0.02 μM) |
| Nc1nn2cc(F)cnc2c1C(=O)Nc1cncc(F)c1N1CCC(C(=O)N2CC[C@H](N3CCCC3)C2)CC1 [I-G-58, (S)—N-(4-(4-([1,3′-bipyrrolidine]-1′-carbonyl)piperidin-1-yl)-5-fluoropyridin-3-yl)-2-amino-6-fluoropyrazolo[1,5-a]pyrimidine-3-carboxamide] | +++ (Cisplatin sensitization value of <0.02 μM) |
